Measured values published in patent publication US20240109912A1, “TRICYCLIC PYRIMIDINES AS CYCLIN-DEPENDENT KINASE 7 (CDK7) INHIBITORS” (JANSSEN PHARMACEUTICA NV, priority 2020, published 2024).
“And” between values parts separate entries of the source, which are not always exact repeats. Equal entries are not always repeated. Where two headings read alike, the source gives them in different places.

Assays:
[1] = system: RNA polymerase II Serine 5 phosphorylation (CDK7) in A549 cells
[2] = target: CDK7/cyclinH/MAT1 trimeric complex (Homo sapiens (Human), UniProt P50613); test: In vitro CDK7 assay, potency of irreversible covalent inhibitors (kinact/KI)
[3] = system: RNA polymerase II Serine 5 phosphorylation in A549 cells overexpressing CDK7 mutant (C312S); test: Imaging-based cellular RNA PolII Ser5 phosphorylation assay in A549 cells overexpressing CDK7-mutant (C312S); format: cell-based, human; details: for IC50: Homo sapiens, A549, A549 cells overexpressing CDK7 mutant (C312S), read-out: CDK7_ A549 mutant hCDK7(pIC50) (converted); for CDK7_ A549 mutant hCDK7(pIC50): A549 cells overexpressing CDK7 mutant (C312S)
Experimental: Data were calculated and analyzed in Phaedra.
From this an IC50 value can be obtained.
In parallel this assay was performed in A549 cells overexpressing CDK7-mutant (C312S) to evaluate the effect of the covalent bond on potency and to screen for potential off-target effects. Mutation of Cysteine to Serine (C312S), a less nucleophilic amino acid, prevents CDK7 inhibitors from covalently binding to CDK7 and from inhibiting CDK7 activity in an irreversible manner. A stably transduced A549 cell pool was generated that overexpresses CDK7 mutant (C312S), but also expresses endogenous CDK7-WT. Covalent binders targeting the cysteine at position 312 will show a shift in potency in A549 cells overexpressing mutant C312S CDK7.

[4] = CDK7 (20 nM enz.) (KI, μM), 20 nM enz.
[5] = read-out: CDK7 (20 nM enz.) (kinact, s^−1), 20 nM enz.
[6] = read-out: CDK7 (20 nM enz.) (kinact/ KI, M^−1*s^−1), 20 nM enz.
[7] = read-out: CDK7 (20 nM enz.) (kobs/[I], M^−1*s^−1), 20 nM enz.
[8] = read-out: CDK7 (kinact, s^−1), Table B
[9] = read-out: CDK7 (kinact/KI, M^−1*s^−1), Table B

Sequence of CDK7/cyclinH/MAT1 trimeric complex (P50613 whole entry): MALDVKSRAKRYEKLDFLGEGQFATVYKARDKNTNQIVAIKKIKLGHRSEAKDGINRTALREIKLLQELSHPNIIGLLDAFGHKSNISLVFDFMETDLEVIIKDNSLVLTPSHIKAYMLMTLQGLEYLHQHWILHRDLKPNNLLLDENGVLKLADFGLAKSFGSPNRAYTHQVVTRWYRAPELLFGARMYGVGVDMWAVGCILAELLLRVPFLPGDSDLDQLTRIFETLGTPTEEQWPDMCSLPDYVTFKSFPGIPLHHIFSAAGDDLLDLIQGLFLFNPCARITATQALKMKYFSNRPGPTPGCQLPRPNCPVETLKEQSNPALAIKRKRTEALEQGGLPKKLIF
Sequence of CDK7/cyclinH/MAT1 trimeric complex (P51946 whole entry partner): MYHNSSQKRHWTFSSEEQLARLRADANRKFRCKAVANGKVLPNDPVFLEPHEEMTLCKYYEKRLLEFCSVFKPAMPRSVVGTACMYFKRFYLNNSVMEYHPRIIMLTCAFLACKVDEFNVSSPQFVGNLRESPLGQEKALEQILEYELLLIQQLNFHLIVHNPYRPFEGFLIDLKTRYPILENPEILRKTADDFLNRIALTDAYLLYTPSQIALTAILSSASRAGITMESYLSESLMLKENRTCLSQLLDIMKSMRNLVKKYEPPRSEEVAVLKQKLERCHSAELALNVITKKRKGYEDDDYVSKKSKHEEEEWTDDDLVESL
Sequence of CDK7/cyclinH/MAT1 trimeric complex (P51948 whole entry partner): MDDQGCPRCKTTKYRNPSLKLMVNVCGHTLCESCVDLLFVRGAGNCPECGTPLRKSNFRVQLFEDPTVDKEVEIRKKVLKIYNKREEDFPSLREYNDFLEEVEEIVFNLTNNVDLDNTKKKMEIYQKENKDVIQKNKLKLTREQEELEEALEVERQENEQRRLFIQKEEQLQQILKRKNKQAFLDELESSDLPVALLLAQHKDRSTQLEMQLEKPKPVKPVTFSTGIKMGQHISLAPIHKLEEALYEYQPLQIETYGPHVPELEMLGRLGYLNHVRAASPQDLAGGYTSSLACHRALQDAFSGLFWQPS

IC50 [1]	Ki [2, 4]	kinact [2, 5] [s⁻¹]	kinact/KI [2, 6] [M⁻¹ s⁻¹]	IC50 [3] [nM]	CDK7 (20 nM enz.) (kinact, s^−1) ([2]; 20 nM enz.)	CDK7 (20 nM enz.) (kinact/ KI, M^−1*s^−1) ([2]; 20 nM enz.) [M⁻¹ s⁻¹]	CDK7_ A549 mutant hCDK7(pIC50) [3]	kinact/KI [2, 7] [M⁻¹ s⁻¹]	Ki ([2]; CDK7 (KI(μM)), Table B) [µM]	kinact [2, 8] [s⁻¹]	kinact/KI [2, 9] [M⁻¹ s⁻¹]	CDK7 (20 nM enz.) (kobs/[I], M^−1*s^−1) ([2]; 20 nM enz.) [M⁻¹ s⁻¹]	Structure (SMILES)
741 nM	1.22 µM	6.34e-05	52.1	> 10000									C=CC(=O)N1CCC(N2CC[C@@H](c3cc(C)c4c(c3)Nc3ncnc(N5CCOCC5)c3CO4)C2)CC1 [compound 25]
288 nM	0.112 µM	0.000116	1030	> 10000									C=CC(=O)N1CC(N2CC(c3cc(C)c4c(c3)Nc3ncnc(N5CCS(=O)(=O)CC5)c3CO4)C2)C1 [compound 111]
832 nM	0.408 µM	5.42e-05	133	> 10000									C=CC(=O)N1CC(N2CCC(c3cc(F)c4c(c3)Nc3ncnc(-c5cnn(C)c5)c3CO4)CC2)C1 [compound 21]
603 nM	0.255 µM	5.86e-05	230	> 10000									C=CC(=O)N1CC(N2CC[C@H](c3cc(C)c4c(c3)Nc3ncnc(N5CCOCC5)c3CO4)C2)C1 [compound 23]
1120 nM	0.78 µM				7.3e-05 s⁻¹	93.6387	<5						C=CC(=O)N1CCC(N2CC(c3cc(C)c4c(c3)Nc3ncnc(N5CCOCC5)c3CO4)C2)C(F)C1 (stereo not drawn) [compound 29]
6460 nM	4.12 µM	0.0001	24.3	> 10000									C=CC(=O)N1CC(N2CCC(c3cc(C)c4c(c3)Nc3ncnc(N5CCC(S(C)(=O)=O)C5)c3CO4)CC2)C1 (stereo not drawn) [compound 65]
204 nM and 339 nM	0.28 µM and 0.281 µM	4.2e-05	150	> 10000	5.02e-05 s⁻¹	179.017	<5						C=CC(=O)N1CC[C@@H](N2CC(c3cc(C)c4c(c3)Nc3ncnc(N5CCS(=O)(=O)CC5)c3[C@H](C)O4)C2)C1 (single isomer, unassigned) [compound 118]
1320 nM	1.2 µM	0.000103	85.8	> 10000									C=CC(=O)N1CC(N2CCC(c3cc(C)c4c(c3)Nc3ncnc(N5CCCC(C#N)C5)c3CO4)CC2)C1 (stereo not drawn) [compound 67]
50.1 nM				> 10000				1140					C=CC(=O)N1CCC(N2CCC(c3cc(C)c4c(c3)Nc3ncnc(N5CCS(=N)(=O)CC5)c3CO4)CC2)C1 (stereo not drawn) [compound 104]
~46.8 nM	0.00389 µM	4.73e-05	12200	> 10000									CC#CC(=O)N1CC(C)(N2CCC(c3cc(C)c4c(c3)Nc3ncnc(N5CCS(=O)(=O)CC5)c3[C@@H](C)O4)CC2)C1 [compound 144]
102 nM	0.108 µM	5.21e-05	485	> 10000									CC#CC(=O)N1CC(N2CCC(c3cc(C)c4c(c3)Nc3ncnc(N5CCOC6(COC6)C5)c3CO4)CC2)C1 [compound 195]
275 nM and 234 nM	0.0781 µM and 0.315 µM	5.64e-05		> 10000	8.3e-05 s⁻¹								C=CC(=O)N1CC[C@@H](N2CCC(c3cc(C)c4c(c3)Nc3ncnc(N5CCOCC5)c3CO4)CC2)C1 [compound 13]
214 nM	0.00172 µM	2.06e-05	12200	> 10000									CC#CC(=O)N1CC(N2CCN(c3cc(C)c4c(c3)Nc3ncnc(N5CCS(=O)(=O)CC5)c3[C@@H](C)O4)CC2)C1 [compound 155]
288 nM	0.336 µM	4.84e-05	203	> 10000									C=CC(=O)N1CCC(N2CC(c3cc(F)c4c(c3)Nc3ncnc(N5CCOCC5)c3[C@H](C)O4)C2)CC1 [compound 26]
759 nM	0.686 µM	8.88e-05	129	> 10000									C=CC(=O)N1CCC(N2CC(c3cc(C)c4c(c3)Nc3ncnc(N5CCOCC5)c3CO4)C2)C(F)C1 (stereo not drawn) [compound 28]
46.8 nM	0.0908 µM	7.15e-05	788	> 10000									CC#CC(=O)N1CCC(N2CC=C(c3cc(C)c4c(c3)Nc3ncnc(N5CCS(=O)(=O)CC5)c3CO4)CC2)CC1 [compound 138]
912 nM				> 10000					1.03	0.000166	161		C=CC(=O)NCCN1CCC(c2ccc3c(c2)Nc2ncnc(N4CCOCC4)c2CO3)CC1 [compound 3]

IC50 [1]	Ki [2, 4]	kinact [2, 5] [s⁻¹]	kinact/KI [2, 6] [M⁻¹ s⁻¹]	IC50 [3] [nM]	CDK7 (20 nM enz.) (kinact, s^−1) ([2]; 20 nM enz.)	CDK7 (20 nM enz.) (kinact/ KI, M^−1*s^−1) ([2]; 20 nM enz.) [M⁻¹ s⁻¹]	CDK7_ A549 mutant hCDK7(pIC50) [3]	kinact/KI [2, 7] [M⁻¹ s⁻¹]	Ki ([2]; CDK7 (KI(μM)), Table B) [µM]	kinact [2, 8] [s⁻¹]	kinact/KI [2, 9] [M⁻¹ s⁻¹]	CDK7 (20 nM enz.) (kobs/[I], M^−1*s^−1) ([2]; 20 nM enz.) [M⁻¹ s⁻¹]	Structure (SMILES)
380 nM	0.529 µM	8.2e-05	155	> 10000									C=CC(=O)N1CC[C@H](N2CC(c3cc(C)c4c(c3)Nc3ncnc(N5CCOCC5)c3CO4)C2)C1 [compound 18]
457 nM and 282 nM	0.191 µM and 0.498 µM	7.04e-05	368	> 10000	0.0001275 s⁻¹	256.184							C=CC(=O)N1CC[C@H](N2CCC(c3cc(C)c4c(c3)Nc3ncnc(N5CCOCC5)c3CO4)CC2)C1 [compound 12]
646 nM	0.533 µM	4.78e-05	89.6	> 10000									C=CC(=O)N1CCC(N2CC[C@H](c3cc(C)c4c(c3)Nc3ncnc(N5CCOCC5)c3CO4)C2)CC1 [compound 24]
282 nM	0.121 µM	3.13e-05	259	> 10000									C=CC(=O)N1CCC(N2CC(c3cc(C)c4c(c3)Nc3ncnc(N5CCS(=N)(=O)CC5)c3CO4)C2)CC1 [compound 105]
380 nM	0.716 µM	6.7e-05	93.7	> 10000									C=CC(=O)N1CC[C@@H](N2CC(c3cc(C)c4c(c3)Nc3ncnc(N5CCOCC5)c3CO4)C2)C1 [compound 17]
1170 nM	0.132 µM	5.42e-05	412	> 10000									C=CC(=O)N1CC(N2CCC(c3cc(C#N)c4c(c3)Nc3ncnc(-c5cnn(C)c5)c3CO4)CC2)C1 [compound 74]
3240 nM	4.2 µM	8.48e-05	20.2	> 10000									C=CC(=O)N1CC(N2CCC(c3ccc4c(c3)Nc3ncnc(N5CCOCC5)c3[C@@H](C)O4)CC2)C1 (single isomer, unassigned) [compound 56]
~50.1 nM and ~40.7 nM				> 10000				839					C#Cc1cc(C2CCN(C3CN(C(=O)C=C)C3)CC2)cc2c1O[C@@H](C)c1c(ncnc1N1CCS(=O)(=O)CC1)N2 [compound 190]
813 nM	0.0322 µM	4.3e-05	1330	> 10000									C=CC(=O)N1CC(N2CC(c3cc(C)c4c(c3)Nc3ncnc(N5CCS(=N)(=O)CC5)c3CO4)C2)C1 [compound 110]
4570 nM	0.189 µM	3.93e-05	209	> 10000									C=CC(=O)N1CC[C@@H](N2CC(c3cc4c(c(C)n3)OCc3c(ncnc3N3CCS(=O)(=O)CC3)N4)C2)C1 (single isomer, unassigned) [compound 79]
1820 nM				> 10000					0.38	0.000155	409		C=CC(=O)N1CC(N2CC[C@@H](c3ccc4c(c3)Nc3ncnc(N5CCOCC5)c3CO4)C2)C1 [compound 10]
288 nM	0.0411 µM	3.59e-05	874	8910									C=CC(=O)N1CCC(N2CCC(c3cc(C)c4c(c3)Nc3ncnc(N5CCOCC5)c3CO4)CC2)C1 (stereo not drawn) [compound 11]
138 nM				832				1090					C=CC(=O)N1CC(N2CCC(c3cc(C)c4c(c3)Nc3ncnc(N5CCS(=N)(=O)CC5)c3CO4)CC2)C1 [compound 72]
~53.7 nM	0.00416 µM	5.87e-05	14100	> 10000									CC#CC(=O)N1CCC(N2CCN(c3cc(C)c4c(c3)Nc3ncnc(N5CCS(=O)(=O)CC5)c3[C@@H](C)O4)CC2)CC1 [compound 154]
158 nM	0.0177 µM	2.42e-05	1370	> 10000									C#Cc1cc(C2CN([C@H]3CCN(C(=O)C=C)C3)C2)cc2c1O[C@@H](C)c1c(ncnc1N1CCS(=O)(=O)CC1)N2 [compound 194]
219 nM	0.32 µM	4.18e-05	131	> 10000									C=CC(=O)N1CC(N2CCC(c3cc(C)c4c(c3)Nc3ncnc(-c5ccnn5C)c3CO4)CC2)C1 [compound 80]

Structure (SMILES)	IC50 [1]	Ki [2, 4]	kinact [2, 5] [s⁻¹]	kinact/KI [2, 6] [M⁻¹ s⁻¹]	IC50 [3] [nM]	CDK7 (20 nM enz.) (kinact, s^−1) ([2]; 20 nM enz.)	CDK7 (20 nM enz.) (kinact/ KI, M^−1*s^−1) ([2]; 20 nM enz.) [M⁻¹ s⁻¹]	CDK7_ A549 mutant hCDK7(pIC50) [3]	kinact/KI [2, 7] [M⁻¹ s⁻¹]	Ki ([2]; CDK7 (KI(μM)), Table B) [µM]	kinact [2, 8] [s⁻¹]	kinact/KI [2, 9] [M⁻¹ s⁻¹]	CDK7 (20 nM enz.) (kobs/[I], M^−1*s^−1) ([2]; 20 nM enz.) [M⁻¹ s⁻¹]
CC#CC(=O)N1CC(N2CCC(c3cc(C)c4c(c3)Nc3ncnc(N5CCS(=O)(=O)CC5)c3[C@@H](C)O4)CC2)C1 [compound 148]	42.7 nM and 60.3 nM and 75.9 nM and 63.1 nM and ~61.7 nM	0.0218 µM and 0.0473 µM and 0.0348 µM and 0.00601 µM	4.04e-05		> 10000	6.08e-05 s⁻¹ and 5.32e-05 s⁻¹ and 4.3e-05 s⁻¹			952				1230.83
